Assay results reported in the supplement of paper PMC11061612.

Legend:
Test in all cases: combination Emax (second highest fraction inhibited in the dose matrix, 72 h); higher = more inhibition; extreme values may be limits of the assay
[1] = test system: KP-3 (Pancreatic Carcinoma)
Outline: (§1)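 After 24 hours at 37°C and 5% CO2 in 1536-well plates, cells in DMEM/F12 or RPMI plus 10% FBS received two-drug dose matrices for 72 hours. Viability came from CellTiter-Glo 2.0 luminescence and was scaled as inhibition, anchored at 0 by vehicle wells and at 1 by blank wells. Combination Emax is taken as the second-highest inhibition in the matrix, and Bliss excess as the observed combination effect less EA + EB − EA·EB, with EA and EB the single-agent effects.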

[2] = test system: SK-GT-4 (Esophageal Adenocarcinoma)
Outline: as §1

[3] = test system: MOG-G-CCM (Low Grade Glioma)
Outline: as §1

[4] = test system: MN-60 (B-Lymphoblastic Leukemia)
Outline: as §1

[5] = test system: DMS-114 (Small Cell Lung Carcinoma)
Outline: as §1

[6] = test system: NCI-H526 (Small Cell Lung Carcinoma)
Outline: as §1

[7] = test system: KU812 (Chronic Myelogenous Leukemia)
Outline: as §1

[8] = test system: KYSE-270 (Esophageal Squamous Cell Carcinoma)
Outline: as §1

[9] = test system: NCCIT (Other Solid Carcinomas)
Outline: as §1

[10] = test system: M059J (Glioblastoma)
Outline: as §1

[11] = test system: NCI-H3122 (Lung Adenocarcinoma)
Outline: as §1

[12] = test system: OCI-AML3 (Acute Myeloid Leukemia)
Outline: as §1

[13] = test system: SJSA-1 (Osteosarcoma)
Outline: as §1

[14] = test system: NCI-H2731 (Mesothelioma)
Outline: as §1

[15] = test system: NCI-H929 (Plasma Cell Myeloma)
Outline: as §1

[16] = test system: VMRC-RCZ (Kidney Carcinoma)
Outline: as §1

[17] = test system: CW-2 (Colorectal Carcinoma)
Outline: as §1

[18] = test system: NCI-H520 (Squamous Cell Lung Carcinoma)
Outline: as §1

[19] = test system: ST486 (Burkitt's Lymphoma)
Outline: as §1

[20] = test system: T-T (Esophageal Squamous Cell Carcinoma)
Outline: as §1

In the case of `N#Cc1cnc(Nc2cc(NC[C@H]3CNCCO3)c(C(F)(F)F)cn2)cn1` [SRA737] + CCc1c2c(nc3ccc(O)cc13)-c1cc3c(c(=O)n1C2)COC(=O)[C@]3(O)CC [SN-38] (first compound max 10 µM, 7x7, partner max 0.3 µM), the “combination Emax” value [1] was 0.273, the “combination Emax” value [2] was 0.55 and the “combination Emax” value [3] was 0.734. The “combination Emax” value [4] was 0.79, the “combination Emax” value [5] was 0.608 and the “combination Emax” value [6] was 0.993. For the same compound, the “combination Emax” value [7] was 0.799, the “combination Emax” value [8] was 1 and the “combination Emax” value [9] was 0.783. For the same compound, the “combination Emax” value [10] was 0.908, the “combination Emax” value [11] was 0.857 and the “combination Emax” value [12] was 0.849. The “combination Emax” value [13] was 0.664, the “combination Emax” value [14] was 0.478 and the “combination Emax” value [15] was 0.9. The “combination Emax” value [16] was 0.579, the “combination Emax” value [17] was 0.625 and the “combination Emax” value [18] was 0.819. The “combination Emax” value [19] was 0.991 and the “combination Emax” value [20] was 0.834.

`Cc1nc(-c2cn3c(n2)-c2ccc(-c4cnn(C(C)(C)C(N)=O)c4)cc2OCC3)n(C(C)C)n1` [Taselisib] + O=C(Nc1ccc2[nH]nc(-c3ccncc3)c2c1)[C@@H]1CCN(CC(=O)N2CCN(c3ccc(-c4ncccn4)cc3)CC2)C1 [SCH772984] (first compound max 10 µM, 7x7, partner max 5 µM) was tested, and the “combination Emax” value [1] was 0.354, the “combination Emax” value [2] was 0.924 and the “combination Emax” value [3] was 0.577. For the same compound, the “combination Emax” value [4] was 0.31, the “combination Emax” value [5] was 0.732 and the “combination Emax” value [6] was 0.189. The “combination Emax” value [7] was 1, the “combination Emax” value [8] was 0.822 and the “combination Emax” value [9] was 0.693. The “combination Emax” value [10] was 0.564, the “combination Emax” value [11] was 0.978 and the “combination Emax” value [12] was 0.941. The “combination Emax” value [13] was 0.69, the “combination Emax” value [14] was 0.553 and the “combination Emax” value [15] was 1. The “combination Emax” value [16] was 0.361, the “combination Emax” value [17] was 0.546 and the “combination Emax” value [18] was 0.638. The “combination Emax” value [19] was 0.654 and the “combination Emax” value [20] was 0.853.

For `CC1(C)CCC(CN2CCN(c3ccc(C(=O)NS(=O)(=O)c4ccc(NCC5CCOCC5)c([N+](=O)[O-])c4)c(Oc4cnc5[nH]ccc5c4)c3)CC2)=C(c2ccc(Cl)cc2)C1` [Venetoclax] + CS(=O)(=O)CCNCc1ccc(-c2ccc3ncnc(Nc4ccc(OCc5cccc(F)c5)c(Cl)c4)c3c2)o1 [Lapatinib] (first compound max 1 µM, 7x7, partner max 10 µM), the “combination Emax” value [1] was 0.165, the “combination Emax” value [2] was 0.341 and the “combination Emax” value [3] was 0.166. The “combination Emax” value [4] was 0.111, the “combination Emax” value [5] was 0.226 and the “combination Emax” value [6] was 0.727. For the same compound, the “combination Emax” value [7] was 0.831, the “combination Emax” value [8] was 0.477 and the “combination Emax” value [9] was 0.209. For the same compound, the “combination Emax” value [10] was 0.365, the “combination Emax” value [11] was 0.232 and the “combination Emax” value [12] was 0.397. For the same compound, the “combination Emax” value [13] was 0.219, the “combination Emax” value [14] was 0.285 and the “combination Emax” value [15] was 0.207. The “combination Emax” value [16] was 0.155, the “combination Emax” value [17] was 0.379 and the “combination Emax” value [18] was 0.296. The “combination Emax” value [19] was 0.524 and the “combination Emax” value [20] was 0.794.
